What was measured:
Format in all cases: in vivo
[1] = test system: Euschistus heros (Neotropical Brown Stink Bug); test: Example B2: Euschistus heros, spray on soybean leaves; conditions: 120 h, application rate of 200 ppm, N2 nymphs, 5 days after infestation, read-out: control in at least one of the two categories (mortality or growth inhibition)
Method: Example B2: Euschistus heros (Neotropical Brown Stink Bug)
Soybean leaves on agar in 24-well microtiter plates were sprayed with aqueous test solutions prepared from 10,000 ppm DMSO stock solutions. After drying the leaves were infested with N2 nymphs. The samples were assessed for mortality and growth inhibition in comparison to untreated samples 5 days after infestation.
(§1) The following compounds gave an effect of at least 80% control in at least one of the two categories (mortality or growth inhibition) at an application rate of 200 ppm: […]

[2] = test system: Chilo suppressalis (Striped Rice Stemborer); test: Example B3: Chilo suppressalis, artificial diet; conditions: 144 h, application rate of 200 ppm, L2 larvae, 6 days after infestation, read-out: control in at least one of the three categories (mortality, anti-feedant effect, or growth inhibition)
Method: Example B3: Chilo suppressalis (Striped Rice Stemborer)
24-well microtiter plates with artificial diet were treated with aqueous test solutions prepared from 10,000 ppm DMSO stock solutions by pipetting. After drying, the plates were infested with L2 larvae (6-8 per well). The samples were assessed for mortality, anti-feeding effect, and growth inhibition in comparison to untreated samples 6 days after infestation. Control of Chilo suppressalis by a test sample is given when at least one of the categories mortality, anti-feedant effect, and growth inhibition is higher than the untreated sample.

[3] = test system: Plutella xylostella (Diamond Back Moth); test: Example B4: Plutella xylostella, artificial diet, 24-well; conditions: 192 h, application rate of 200 ppm, eggs, 8 days after infestation, read-out: control in at least one of the two categories (mortality or growth inhibition)
Method: Example B4: Plutella xylostella (Diamond Back Moth)
24-well microtiter plates with artificial diet were treated with aqueous test solutions prepared from 10,000 ppm DMSO stock solutions by pipetting. After drying, Plutella eggs were pipetted through a plastic stencil onto a gel blotting paper and the plate was closed with it. The samples were assessed for mortality and growth inhibition in comparison to untreated samples 8 days after infestation.
as §1

[4] = test system: Spodoptera littoralis (Egyptian Cotton Leaf Worm); test: Example B6: Spodoptera littoralis, spray on cotton leaf discs; conditions: foliar, 72 h, application rate of 200 ppm, L1 larvae, 3 days after infestation, read-out: control in at least one of the three categories (mortality, anti-feedant effect, or growth inhibition)
Method: Example B6: Spodoptera littoralis (Egyptian Cotton Leaf Worm)
Cotton leaf discs were placed onto agar in 24-well microtiter plates and sprayed with aqueous test solutions prepared from 10,000 ppm DMSO stock solutions. After drying the leaf discs were infested with five L1 larvae. The samples were assessed for mortality, anti-feeding effect, and growth inhibition in comparison to untreated samples 3 days after infestation. Control of Spodoptera littoralis by a test sample is given when at least one of the categories mortality, anti-feedant effect, and growth inhibition is higher than the untreated sample.

[5] = test system: Diabrotica balteata (Corn Root Worm); test: Example B1: Diabrotica balteata, spray on maize sprouts; conditions: 96 h, application rate of 200 ppm, L2 larvae, 4 days after infestation, read-out: control in at least one of the two categories (mortality or growth inhibition)
Method: Example B1: Diabrotica balteata (Corn Root Worm)
Maize sprouts placed onto an agar layer in 24-well microtiter plates were treated with aqueous test solutions prepared from 10,000 ppm DMSO stock solutions by spraying. After drying, the plates were infested with L2 larvae (6 to 10 per well). The samples were assessed for mortality and growth inhibition in comparison to untreated samples 4 days after infestation.
as §1

[6] = test system: Plutella xylostella (Diamondback Moth); test: Example B9: Plutella xylostella, artificial diet, 96-well; conditions: 216 h, application rate of 500 ppm, eggs/L1 larvae, 9 days after infestation
Method: Example B9: Plutella xylostella (Diamondback Moth)
96-well microtiter plates containing artificial diet were treated with aqueous test solutions, prepared from 10,000 ppm DMSO stock solutions, by a liquid handling robot. After drying, eggs (˜30 per well) were infested onto a netted lid which was suspended above the diet. The eggs hatch and L1 larvae move down to the diet. The samples were assessed for mortality 9 days after infestation.
The following compounds gave an effect of at least 80% mortality at an application rate of 500 ppm: […]

[7] = test system: Myzus persicae (Green Peach Aphid); test: Example B10: Myzus persicae, sucrose solution, 96-well; conditions: 120 h, application rate of 50 ppm, 5 days after infestation
Text: Example B10: Myzus persicae (Green Peach Aphid)
Test compounds prepared from 10,000 ppm DMSO stock solutions were applied by a liquid handling robot into 96-well microtiter plates and mixed with a sucrose solution. Parafilm was stretched over the 96-well microtiter plate and a plastic stencil with 96 holes was placed onto the plate. Aphids were sieved into the wells directly onto the Parafilm. The infested plates were closed with a gel blotting card and a second plastic stencil and then turned upside down. The samples were assessed for mortality 5 days after infestation.

CC(NC(=O)c1cc(C(F)(F)F)cc(C(F)(F)F)c1)c1nccnc1-n1cncn1 (stereo not shown) [Compound P46, N-[1-[3-(1,2,4-triazol-1-yl)pyrazin-2-yl]ethyl]-3,5-bis(trifluoromethyl)benzamide]
≥ 80%: percent control (mortality or growth inhibition) at 200 ppm [1] | percent control (mortality, anti-feedant effect or growth inhibition) at 200 ppm [2] | percent control (mortality or growth inhibition) at 200 ppm [3] | percent control (mortality, anti-feedant effect or growth inhibition) at 200 ppm [4]

CC(NC(=O)c1cc(Br)cc(OC(F)(F)F)c1)c1nccnc1-n1nccn1 (stereo not shown) [Compound P36, 3-bromo-N-[1-[3-(triazol-2-yl)pyrazin-2-yl]ethyl]-5-(trifluoromethoxy)benzamide]
≥ 80%: percent control (mortality or growth inhibition) at 200 ppm [5] | percent control (mortality, anti-feedant effect or growth inhibition) at 200 ppm [2] | percent control (mortality or growth inhibition) at 200 ppm [3] | percent control (mortality, anti-feedant effect or growth inhibition) at 200 ppm [4] | mortality at 500 ppm [6]

CC(NC(=O)c1cc(C2CC2)cc(C(F)(F)F)c1)c1nccnc1-n1nccn1 (stereo not shown) [Compound P15, 3-cyclopropyl-N-[1-[3-(triazol-2-yl)pyrazin-2-yl]ethyl]-5-(trifluoromethyl)benzamide]
≥ 80%: percent control (mortality or growth inhibition) at 200 ppm [5] | percent control (mortality, anti-feedant effect or growth inhibition) at 200 ppm [2] | percent control (mortality or growth inhibition) at 200 ppm [3] | percent control (mortality, anti-feedant effect or growth inhibition) at 200 ppm [4] | mortality at 500 ppm [6]

CC(NC(=O)c1cc(C(F)(F)F)nc(C2(C#N)CC2)c1)c1nccnc1-n1nccn1 (stereo not shown) [Compound P14, 2-(1-cyanocyclopropyl)-N-[1-[3-(triazol-2-yl)pyrazin-2-yl]ethyl]-6-(trifluoromethyl)pyridine-4-carboxamide]
≥ 80%: percent control (mortality or growth inhibition) at 200 ppm [5] | percent control (mortality or growth inhibition) at 200 ppm [1] | percent control (mortality, anti-feedant effect or growth inhibition) at 200 ppm [2] | percent control (mortality or growth inhibition) at 200 ppm [3] | percent control (mortality, anti-feedant effect or growth inhibition) at 200 ppm [4]

CC(NC(=O)c1cc(Br)cc(Br)c1)c1nccnc1-n1nccn1 (stereo not shown) [Compound P38, 3,5-dibromo-N-[1-[3-(triazol-2-yl)pyrazin-2-yl]ethyl]benzamide]
≥ 80%: percent control (mortality or growth inhibition) at 200 ppm [5] | percent control (mortality, anti-feedant effect or growth inhibition) at 200 ppm [2] | percent control (mortality or growth inhibition) at 200 ppm [3] | percent control (mortality, anti-feedant effect or growth inhibition) at 200 ppm [4] | mortality at 500 ppm [6]

CC(NC(=O)c1cc(Cl)cc(OC(F)(F)F)c1)c1nccnc1-n1nccn1 (stereo not shown) [Compound P33, 3-chloro-N-[1-[3-(triazol-2-yl)pyrazin-2-yl]ethyl]-5-(trifluoromethoxy)benzamide]
≥ 80%: percent control (mortality or growth inhibition) at 200 ppm [5] | percent control (mortality, anti-feedant effect or growth inhibition) at 200 ppm [2] | percent control (mortality or growth inhibition) at 200 ppm [3] | percent control (mortality, anti-feedant effect or growth inhibition) at 200 ppm [4] | mortality at 500 ppm [6]

CC(NC(=O)c1cc(C2CC2(F)F)cc(C(F)(F)F)c1)c1nccnc1-n1nccn1 (stereo not shown) [Compound P7, 3-(2,2-difluorocyclopropyl)-N-[1-[3-(triazol-2-yl)pyrazin-2-yl]ethyl]-5-(trifluoromethyl)benzamide]
≥ 80%: percent control (mortality or growth inhibition) at 200 ppm [5] | percent control (mortality, anti-feedant effect or growth inhibition) at 200 ppm [2] | percent control (mortality or growth inhibition) at 200 ppm [3] | percent control (mortality, anti-feedant effect or growth inhibition) at 200 ppm [4] | mortality at 500 ppm [6]

CC(NC(=O)c1cc(C2CC2C(F)(F)F)cc(C(F)(F)F)c1)c1nccnc1-n1nccn1 (stereo not shown) [Compound P9, N-[1-[3-(triazol-2-yl)pyrazin-2-yl]ethyl]-3-(trifluoromethyl)-5-[2-(trifluoromethyl)cyclopropyl]benzamide]
≥ 80%: percent control (mortality or growth inhibition) at 200 ppm [5] | percent control (mortality, anti-feedant effect or growth inhibition) at 200 ppm [2] | percent control (mortality or growth inhibition) at 200 ppm [3] | percent control (mortality, anti-feedant effect or growth inhibition) at 200 ppm [4] | mortality at 500 ppm [6]

CC(NC(=O)c1cc(F)cc(C(F)(F)F)c1)c1nccnc1-n1nccn1 (stereo not shown) [Compound P26, 3-fluoro-N-[1-[3-(triazol-2-yl)pyrazin-2-yl]ethyl]-5-(trifluoromethyl)benzamide]
≥ 80%: percent control (mortality or growth inhibition) at 200 ppm [5] | percent control (mortality, anti-feedant effect or growth inhibition) at 200 ppm [2] | percent control (mortality or growth inhibition) at 200 ppm [3] | percent control (mortality, anti-feedant effect or growth inhibition) at 200 ppm [4] | mortality at 500 ppm [6] | mortality at 50 ppm [7]

CC(NC(=O)c1cc(Cl)cc(Cl)c1)c1nccnc1-n1nccn1 (stereo not shown) [Compound P20, 3,5-dichloro-N-[1-[3-(triazol-2-yl)pyrazin-2-yl]ethyl]benzamide]
≥ 80%: percent control (mortality or growth inhibition) at 200 ppm [5] | percent control (mortality or growth inhibition) at 200 ppm [1] | percent control (mortality, anti-feedant effect or growth inhibition) at 200 ppm [2] | percent control (mortality or growth inhibition) at 200 ppm [3] | percent control (mortality, anti-feedant effect or growth inhibition) at 200 ppm [4]

CC(NC(=O)c1cc(C(F)(F)F)cc(S(=O)(=O)C(F)(F)F)c1)c1nccnc1-n1nccn1 (stereo not shown) [Compound P13, N-[1-[3-(triazol-2-yl)pyrazin-2-yl]ethyl]-3-(trifluoromethyl)-5-(trifluoromethylsulfonyl)benzamide]
≥ 80%: percent control (mortality or growth inhibition) at 200 ppm [5] | percent control (mortality, anti-feedant effect or growth inhibition) at 200 ppm [2] | percent control (mortality or growth inhibition) at 200 ppm [3] | percent control (mortality, anti-feedant effect or growth inhibition) at 200 ppm [4] | mortality at 500 ppm [6]

CC(NC(=O)c1cc(Cl)nc(C(F)(F)F)c1)c1nccnc1-n1nccn1 (stereo not shown) [Compound P22, 2-chloro-N-[1-[3-(triazol-2-yl)pyrazin-2-yl]ethyl]-6-(trifluoromethyl)pyridine-4-carboxamide]
≥ 80%: percent control (mortality or growth inhibition) at 200 ppm [5] | percent control (mortality, anti-feedant effect or growth inhibition) at 200 ppm [2] | percent control (mortality or growth inhibition) at 200 ppm [3] | percent control (mortality, anti-feedant effect or growth inhibition) at 200 ppm [4] | mortality at 500 ppm [6] | mortality at 50 ppm [7]

CC(NC(=O)c1cc(C(F)(F)F)cc(C(F)(F)C2CC2)c1)c1nccnc1-n1nccn1 (stereo not shown) [Compound P17, 3-[cyclopropyl(difluoro)methyl]-N-[1-[3-(triazol-2-yl)pyrazin-2-yl]ethyl]-5-(trifluoromethyl)benzamide]
≥ 80%: percent control (mortality or growth inhibition) at 200 ppm [5] | percent control (mortality, anti-feedant effect or growth inhibition) at 200 ppm [2] | percent control (mortality or growth inhibition) at 200 ppm [3] | percent control (mortality, anti-feedant effect or growth inhibition) at 200 ppm [4] | mortality at 500 ppm [6]

COc1cc(OC)cc(C(=O)NC(C)c2nccnc2-n2nccn2)c1 (stereo not shown) [Compound P23, 3,5-dimethoxy-N-[1-[3-(triazol-2-yl)pyrazin-2-yl]ethyl]benzamide]
≥ 80%: percent control (mortality or growth inhibition) at 200 ppm [1] | mortality at 50 ppm [7]

CC(NC(=O)c1cc(C(F)(F)F)cc(C(F)(F)F)c1)c1nccnc1-n1nc2ccccc2n1 (stereo not shown) [Compound P52, N-[1-[3-(benzotriazol-2-yl)pyrazin-2-yl]ethyl]-3,5-bis(trifluoromethyl)benzamide]
≥ 80%: percent control (mortality or growth inhibition) at 200 ppm [5] | percent control (mortality, anti-feedant effect or growth inhibition) at 200 ppm [2] | percent control (mortality or growth inhibition) at 200 ppm [3] | percent control (mortality, anti-feedant effect or growth inhibition) at 200 ppm [4] | mortality at 500 ppm [6]

From patent publication US20220289715A1, “PESTICIDALLY ACTIVE PYRAZINE-AMIDE COMPOUNDS” (priority 2019, published 2022)
